Test results as given in patent US10227331B2 (priority 2015, dated 2019).

Tests used:
VIM-1 = VIM-1 (Pseudomonas aeruginosa (strain ATCC 15692 / DSM 22644 / CIP 104116 / JCM 14847 / LMG 12228 / 1C / PRS 101 / PAO1), UniProt A0A0F7KYQ8); test: biochemical; conditions: CCF2-FA substrate, 2 hours at 25° C
Description: (§1) Enzyme Activity: Determination of IC50
(§2) The Class B enzyme activities were measured in the presence of the test inhibitor in a fluorescence assay against a commercially available substrate consisting of a cephalosporin core linking 7-hydroxycoumarin to fluorescein (CCF2-FA). […] In a 384-well microplate, the test inhibitor was incubated with the metallo-β-lactamase enzyme and the substrate for 2 hours at 25° C. […] The IC50 value was determined from semi-logarithmic plots of enzyme inhibition versus inhibitor concentration, with a curve generated using a 4-parameter fit.

IMP-1 = IMP-1 (Serratia marcescens, UniProt P52699); test: biochemical; format: biochemical; conditions: CCF2-FA substrate, 2 hours at 25° C; read-out: IMP-1 IC50
Description: as §1, §2

NDM-1 = NDM-1 (Klebsiella pneumoniae, UniProt C7C422); test: biochemical; format: biochemical; conditions: CCF2-FA substrate, 2 hours at 25° C; read-out: NDM-1 IC50
Description: as §1, §2

[1] = tested on: P. aeruginosa expressing IMP-1, efflux+ (MB9798); format: cell-based, Pseudomonas aeruginosa; conditions: for P. aeruginosa expressing IMP-1, efflux+ (MB9798) MITC95: imipenem at 2 μg/mL, in the presence of a class A, C, D serine β-lactamase inhibitor closely related to relebactam; for Efflux ratio: ratio MITC95 PA_9798/MITC95 PA_9799
Description: (§3) The strain background is Pseudomonas aeruginosa PAO1.

[2] = tested on: P. aeruginosa expressing IMP-1, efflux− (MB9799); test: Efflux: concentration of MBL inhibitor which restores susceptibility to imipenem; format: cell-based, Pseudomonas aeruginosa; conditions: imipenem at 2 μg/mL, in the presence of a class A, C, D serine β-lactamase inhibitor closely related to relebactam
Description: as §3

[3] = tested on: Klebsiella pneumoniae expressing VIM-1 (IHMA599644); format: cell-based; conditions: with imipenem 1 μg/ml, 95% inhibition of bacterial growth; for Klebsiella pneumoniae MITC95: VIM-1 (IHMA599644)
Description: (§4) Antibiotic Potentiation Activity: Determination of Synergistic Concentration
(§5) The bacterial strains tested included the clinical strains Escherichia coli expressing NDM-1 (CLB30005, CLB30016), Serratia marcescens expressing IMP-1 (CL5741), and Klebsiella pneumoniae expressing VIM-1 (IHMA599644). Inhibitor activity was measured in the presence and absence of imipenem in a 384-well microplate.
(§6) The clinical strains CLB30016, CL5741 and IHMA599644 were grown on trypticase soy agar containing 5% sheep's blood. The bacteria on agar plates were incubated at 35° C. with humidity overnight. The following day, individual colonies from each clinical strain were picked and resuspended in 5 ml saline to attain an OD600 of […], for CLB30016, CL5741 and IHMA599644, respectively. These were further diluted 1:100 into 1.1×CAMHB and used to inoculate the test wells as described below.
(§7) Imipenem in 10 mM 3-(N-morpholino)propanesulfonic acid (MOPS, pH 7) was stored in single use aliquots at −80° C. […] On the day of the assay, 4 μl of antibiotic was added to 45 ul of bacteria followed by 1 μl of test compound and mixed by pipetting and with an orbital shaker. The concentration of antibiotic used in the assay was 1 μg/ml. Microplates were covered and incubated at 35° C. for 22 hours to 24 hours. At the end of the incubation, absorbance was determined using a spectrophotometer.
(§8) For example, in general, the compounds of Examples 1-379 were determined to restore susceptibility to imipenem for one or more of the test organisms at concentrations of 100 μM or less.

[4] = tested on: Escherichia coli expressing NDM-1 (CLB30005, CLB30016); format: cell-based; conditions: with imipenem 1 μg/ml, 95% inhibition of bacterial growth; for Escherichia coli MITC95: NDM-1 (CLB30016)
Description: as §4, §5, §6, §7, §8

[5] = tested on: Serratia marcescens expressing IMP-1 (CL5741); format: cell-based; conditions: with imipenem 1 μg/ml, 95% inhibition of bacterial growth; for Serratia marcescens MITC95: IMP-1 (CL5741)
Description: as §4, §5, §6, §7, §8

Chain of IMP-1 (P52699 whole entry, looked up, species assumed): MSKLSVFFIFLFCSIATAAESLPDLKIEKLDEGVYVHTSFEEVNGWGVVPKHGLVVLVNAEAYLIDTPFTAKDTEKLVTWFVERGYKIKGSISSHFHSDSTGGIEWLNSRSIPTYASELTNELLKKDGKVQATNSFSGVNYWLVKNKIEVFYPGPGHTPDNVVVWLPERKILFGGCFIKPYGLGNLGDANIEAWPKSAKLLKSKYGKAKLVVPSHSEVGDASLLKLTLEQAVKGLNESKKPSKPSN
Chain of NDM-1 (C7C422 whole entry, looked up, species assumed): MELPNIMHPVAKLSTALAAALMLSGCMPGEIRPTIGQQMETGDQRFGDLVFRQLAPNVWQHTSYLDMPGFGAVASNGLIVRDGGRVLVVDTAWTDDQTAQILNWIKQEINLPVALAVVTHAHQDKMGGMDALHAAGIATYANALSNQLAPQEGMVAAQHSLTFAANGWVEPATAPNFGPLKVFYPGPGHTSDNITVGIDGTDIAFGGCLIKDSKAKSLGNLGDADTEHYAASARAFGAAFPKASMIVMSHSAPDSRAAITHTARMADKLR

Structure (SMILES) | IC50 (VIM-1) [nM] | IC50 (IMP-1) [nM] | IC50 (NDM-1) [nM] | P. aeruginosa expressing IMP-1, efflux+ (MB9798) MITC95 [1] [µM] | Efflux ratio [1] | P. aeruginosa expressing IMP-1, efflux− (MB9799) MITC95 [2] [µM] | Klebsiella pneumoniae expressing VIM-1 (IHMA599644) MITC95 [3] [µM] | Escherichia coli expressing NDM-1 (CLB30016) MITC95 [4] [µM] | Serratia marcescens expressing IMP-1 (CL5741) MITC95 [5] [µM] | Klebsiella pneumoniae MITC95 [3] [µM] | Escherichia coli MITC95 [4] [µM] | Serratia marcescens MITC95 [5] [µM]
Nc1nc2cc(-c3ccc(SC4CNC4)c(S(N)(=O)=O)c3-c3nn[nH]n3)ccc2[nH]1 [Example 1, 3-(2-amino-1H-benzo[d]imidazol-5-yl)-6-(azetidin-3-ylthio)-2-(2H-tetrazol-5-yl)benzenesulfonamide] | 141 | 422 | 20.8 | 50 | 8.00 | 6.25 | 6.25 | 0.3906 | 6.25 |  |  | 
Nc1nc2c(-c3ccc(SC4CNC4)c(S(N)(=O)=O)c3-c3nn[nH]n3)cccc2[nH]1 [Example 2, 3-(2-amino-1H-benzo[d]imidazol-4-yl)-6-(azetidin-3-ylthio)-2-(2H-tetrazol-5-yl)benzenesulfonamide] | 73.7 | 75.8 | 2.24 | 6.25 | 4.88 | 1.281 | 6.25 | 0.5 | 1.781 |  |  | 
Nc1nc2cccc(-c3ccc(SC4CCNCC4)c(S(N)(=O)=O)c3-c3nn[nH]n3)c2[nH]1 [Example 3, 3-(2-amino-3H-benzo[d]imidazol-4-yl)-6-(piperidin-4-ylthio)-2-(2H-tetrazol-5-yl)benzenesulfonamide] | 79.5 | 109 | 3.27 | 25 | 9.75 | 2.563 | 25 | 0.125 | 6.25 |  |  | 
NS(=O)(=O)c1c(SC2CNC2)ccc(-c2ccc(C3CCNCC3)cc2)c1-c1nn[nH]n1 [Example 4, 4-(Azetidin-3-ylthio)-4′-(piperidin-4-yl)-2-(2H-tetrazol-5-yl)-[1,1′-biphenyl]-3-sulfonamide] | 53.5 | 15.1 | 11.5 | 1.563 | 4.00 | 0.3906 | 3.125 | 0.7813 | 1.563 |  |  | 
NS(=O)(=O)c1c([S+]([O-])C2CNC2)ccc(-c2ccc(C3CCNCC3)cc2)c1-c1nn[nH]n1 (stereo not shown) [Example 5, 4-(Azetidin-3-ylsulfinyl)-4′-(piperidin-4-yl)-2-(2H-tetrazol-5-yl)-[1,1′-biphenyl]-3-sulfonamide] | 2.02 | 6.88 | 1.98 | 3.125 | 2.00 | 1.563 | 3.125 | 3.125 | 3.125 |  |  | 
NS(=O)(=O)c1c(S(=O)(=O)C2CNC2)ccc(-c2ccc(C3CCNCC3)cc2)c1-c1nn[nH]n1 [Example 6] | 0.195 | 0.212 | 0.307 | 0.7813 | 1.00 | 0.7813 | 1.563 | 0.7813 | 1.563 |  |  | 
NS(=O)(=O)c1c(SC2CNC2)ccc(-c2cnc3ccccn23)c1-c1nn[nH]n1 [Example 7, 6-(azetidin-3-ylthio)-3-(imidazo[1,2-a]pyridin-3-yl)-2-(2H-tetrazol-5-yl)benzenesulfonamide] | 25.6 | 50.4 | 7.55 | 25 | 8.00 | 3.125 | 6.25 | 0.3906 | 3.125 |  |  | 
NS(=O)(=O)c1c([S+]([O-])C2CNC2)ccc(-c2cnc3ccccn23)c1-c1nn[nH]n1 (stereo not shown) [Example 8, 6-(azetidin-3-ylsulfinyl)-3-(imidazo[1,2-a]pyridin-3-yl)-2-(2H-tetrazol-5-yl)benzenesulfonamide] | 6.92 | 37.7 | 2.62 | 50 | 8.00 | 6.25 | 12.5 | 3.125 | 12.5 |  |  | 
NC(=O)N1CC(S(=O)(=O)c2ccc(-c3ccc(NS(=O)(=O)C4CC4)cc3)c(-c3nn[nH]n3)c2S(N)(=O)=O)C1 [Example 246, 3-((4′-(cyclopropanesulfonamido)-3-sulfamoyl-2-(2H-tetrazol-5-yl)-[1,1′-biphenyl]-4-yl)sulfonyl)azetidine-1-carboxamide] | 0.139 | 0.103 |  | 12.5 |  | 3.125 |  |  |  | 25 | 50 | 12.5
NC[C@H](O)CS(=O)(=O)c1ccc(-c2cccc3sc(N)nc23)c(-c2nn[nH]n2)c1S(N)(=O)=O [Example 281, 6-((S)-3-amino-2-hydroxypropylsulfonyl)-3-(2-aminobenzo[d]thiazol-4-yl)-2-(2H-tetrazol-5-yl)benzenesulfonamide] | 0.134 |  | 0.0561 | 0.3906 |  | 0.7813 |  |  |  | 1.563 | 0.7813 | 0.7813
NC[C@@H](O)CS(=O)(=O)c1ccc(-c2cccnc2N)c(-c2nn[nH]n2)c1S(N)(=O)=O [Example 367, (R)-6-((3-amino-2-hydroxypropyl)sulfonyl)-3-(2-aminopyridin-3-yl)-2-(2H-tetrazol-5-yl) benzenesulfonamide] | 0.703 |  |  | 1.563 | 1.00 | 1.563 |  |  |  | 1.563 | 0.1953 | 0.7813
NC[C@H](O)CS(=O)(=O)c1ccc(-c2cccnc2N)c(-c2nn[nH]n2)c1S(N)(=O)=O [Example 368, (S)-6-((3-amino-2-hydroxypropyl)sulfonyl)-3-(2-aminopyridin-3-yl)-2-(2H-tetrazol-5-yl) benzenesulfonamide] | 0.561 |  |  | 1.563 | 1.33 | 1.172 |  |  |  | 2.344 | 0.1953 | 0.7813
